Results: patent US10351573B2, “Benzoic acid, benzoic acid derivatives and heteroaryl carboxylic acid conjugates of hydrocodone, prodrugs, methods of making and uses thereof” (KemPharm, Inc., priority 2009, dated 2019)
“Also recorded” adds a separate entry of the source.

Columns and labels:
[1] = Tamper resistance: solvent hydrolysis studies; format: physicochemical
Procedure: In order to further evaluate the tamper-resistant properties of Bz-HC, a wide variety of Bz-HC solvent extraction studies were performed. […] The prodrug is not cleaved and no hydrocodone becomes available. […] We also conducted a wide variety of Bz-HC solvent hydrolysis studies in our own laboratories.

[2] = Example 20: intact Bz-HC in plasma samples of Examples 13-18; format: in vivo; details: humans, oral, LLOQ
Procedure: Validated LC/MS/MS methods were used to measure plasma concentrations of Bz-HC, hydrocodone, hydromorphone and acetaminophen (APAP). The lower limits of quantitation (LLOQ) for Bz-HC, hydrocodone, hydromorphone, and APAP in plasma were 25 pg/mL, 250 pg/mL, 25 pg/mL, and 0.025 μg/mL, respectively for examples 14-18. For example 13, the lower limits of quantitation (LLOQ) for Bz-HC, hydrocodone, hydromorphone were 0.5 ng/mL.
LC/MS/MS analyses were performed in order to attempt to measure intact Bz-HC concentrations in the plasma samples obtained from any of the blood samples described above in Examples 13-18. However, all plasma concentrations of intact Bz-HC were <LLOQ (25 pg/mL) and no PK analyses could be performed

[3] = Oral PK profiles in rats (plasma hydrocodone, hydromorphone, intact Bz-HC by LC/MS/MS); details: equivalent to 2 mg/kg hydrocodone freebase
[4] = system: trypsin, pancreatin, pepsin and various esterases; experiment: Enzymatic tampering studies; format: in vitro ADME
Excerpt: Without being bound by theory, it is believed that metabolism of Bz-HC after oral administration that allows for the rapid release of therapeutic amounts of hydrocodone requires the combinations and processes of the esterases and other enzymes functioning in the living enterocytes and liver tissue inside the body.

[5] = Water solubility / feasibility of intranasal or intravenous dosing
[6] = Example 22: intranasal crushed / oral intact tablets human PK study vs HB/APAP
[7] = Oral PK profiles in dogs; details: equivalent to 2 mg/kg hydrocodone freebase
[8] = human, plasma, inhaled or intranasal, 13.34 mg

COc1ccc2c3c1OC1C(OC(=O)c4ccccc4)=CCC4C(C2)N(C)CCC314 (stereo not drawn) [Bz-HC, benzoate-hydrocodone]
%-release of Hydrocodone ([1]; Acetone, ambient temperature, 0.5 h): 0% | %-release of Hydrocodone ([1]; Acetone, ambient temperature, 1 h): 0% | %-release of Hydrocodone ([1]; Acetone, ambient temperature, 4 h): 0% | %-release of Hydrocodone ([1]; Acetone, at boiling point, 0.5 h): 0% | %-release of Hydrocodone ([1]; Acetone, at boiling point, 1 h): 0% | %-release of Hydrocodone ([1]; Acetone, at boiling point, 4 h): 0% | %-release of Hydrocodone ([1]; Ethanol, ambient temperature, 0.5 h): 0% | %-release of Hydrocodone ([1]; Ethanol, ambient temperature, 1 h): 0% | %-release of Hydrocodone ([1]; Ethanol, ambient temperature, 4 h): 0% | %-release of Hydrocodone ([1]; Ethanol, at boiling point, 0.5 h): 0% | %-release of Hydrocodone ([1]; Ethanol, at boiling point, 1 h): 0% | %-release of Hydrocodone ([1]; Ethanol, at boiling point, 4 h): 0% | %-release of Hydrocodone ([1]; Ethyl acetate, ambient temperature, 0.5 h): 0% | %-release of Hydrocodone ([1]; Ethyl acetate, ambient temperature, 1 h): 0% | %-release of Hydrocodone ([1]; Ethyl acetate, ambient temperature, 4 h): 0% | %-release of Hydrocodone ([1]; Ethyl acetate, at boiling point, 0.5 h): 0% | %-release of Hydrocodone ([1]; Ethyl acetate, at boiling point, 1 h): 0% | %-release of Hydrocodone ([1]; Ethyl acetate, at boiling point, 4 h): 0% | %-release of Hydrocodone ([1]; Methanol, ambient temperature, 0.5 h): 0% | %-release of Hydrocodone ([1]; Methanol, ambient temperature, 1 h): 0% | %-release of Hydrocodone ([1]; Methanol, ambient temperature, 4 h): 0% | %-release of Hydrocodone ([1]; Methanol, at boiling point, 0.5 h): 0% | %-release of Hydrocodone ([1]; Methanol, at boiling point, 1 h): 0% | %-release of Hydrocodone ([1]; Methanol, at boiling point, 4 h): 0% | %-release of Hydrocodone ([1]; Methyl ethyl ketone, ambient temperature, 0.5 h): 0% | %-release of Hydrocodone ([1]; Methyl ethyl ketone, ambient temperature, 1 h): 0% | %-release of Hydrocodone ([1]; Methyl ethyl ketone, ambient temperature, 4 h): 0% | %-release of Hydrocodone ([1]; Methyl ethyl ketone, at boiling point, 0.5 h): 0% | %-release of Hydrocodone ([1]; Methyl ethyl ketone, at boiling point, 1 h): 0% | %-release of Hydrocodone ([1]; Methyl ethyl ketone, at boiling point, 4 h): 0% | %-release of Hydrocodone ([1]; Octane, ambient temperature, 0.5 h): 0% | %-release of Hydrocodone ([1]; Octane, ambient temperature, 1 h): 0% | %-release of Hydrocodone ([1]; Octane, ambient temperature, 4 h): 0% | %-release of Hydrocodone ([1]; Octane, at boiling point, 0.5 h): 0% | %-release of Hydrocodone ([1]; Octane, at boiling point, 1 h): 0% | %-release of Hydrocodone ([1]; Octane, at boiling point, 4 h): 0% | %-release of Hydrocodone ([1]; Petrol ether, ambient temperature, 0.5 h): 0% | %-release of Hydrocodone ([1]; Petrol ether, ambient temperature, 1 h): 0% | %-release of Hydrocodone ([1]; Petrol ether, ambient temperature, 4 h): 0% | %-release of Hydrocodone ([1]; Petrol ether, at boiling point, 0.5 h): 0% | %-release of Hydrocodone ([1]; Petrol ether, at boiling point, 1 h): 0% | %-release of Hydrocodone ([1]; Petrol ether, at boiling point, 4 h): 0% | %-release of Hydrocodone ([1]; Tetrahydrofuran, ambient temperature, 0.5 h): 0% | %-release of Hydrocodone ([1]; Tetrahydrofuran, ambient temperature, 1 h): 0% | %-release of Hydrocodone ([1]; Tetrahydrofuran, ambient temperature, 4 h): 0% | %-release of Hydrocodone ([1]; Tetrahydrofuran, at boiling point, 0.5 h): 0% | %-release of Hydrocodone ([1]; Tetrahydrofuran, at boiling point, 1 h): 0% | %-release of Hydrocodone ([1]; Tetrahydrofuran, at boiling point, 4 h): 0% | %-release of Hydrocodone ([1]; Toluene, ambient temperature, 0.5 h): 0% | %-release of Hydrocodone ([1]; Toluene, ambient temperature, 1 h): 0% | %-release of Hydrocodone ([1]; Toluene, ambient temperature, 4 h): 0% | %-release of Hydrocodone ([1]; Toluene, at boiling point, 0.5 h): 0% | %-release of Hydrocodone ([1]; Toluene, at boiling point, 1 h): 0% | %-release of Hydrocodone ([1]; Toluene, at boiling point, 4 h): 0% | %-release of Hydrocodone ([1]; Water, ambient temperature, 0.5 h): 0% | %-release of Hydrocodone ([1]; Water, ambient temperature, 1 h): 0% | %-release of Hydrocodone ([1]; Water, ambient temperature, 4 h): 0% | %-release of Hydrocodone ([1]; Water, at boiling point, 0.5 h): 0% | %-release of Hydrocodone ([1]; Water, at boiling point, 1 h): 0% | %-release of Hydrocodone ([1]; Water, at boiling point, 4 h): 0% | %-release of Hydrocodone ([1]; Xylene, ambient temperature, 0.5 h): 0% | %-release of Hydrocodone ([1]; Xylene, ambient temperature, 1 h): 0% | %-release of Hydrocodone ([1]; Xylene, ambient temperature, 4 h): 0% | %-release of Hydrocodone ([1]; Xylene, at boiling point, 0.5 h): 0% | %-release of Hydrocodone ([1]; Xylene, at boiling point, 1 h): 0% | %-release of Hydrocodone ([1]; Xylene, at boiling point, 4 h): 0% | plasma concentrations of intact Bz-HC [2]: < 25 pg/mL | AUC for intact Bz-HC as % of the AUC value for hydrocodone [3]: approximately 10% | AUC for intact Bz-HC as % of the AUC value for hydromorphone [3]: ~3% | release of hydrocodone from the prodrug by enzymes (in words) [4]: no significant release of hydrocodone | solubility at physiological pH (in words) ([5]; human physiological pH of 7.4 (blood)): highly insoluble | water solubility (in words) ([5]; water): hydrophobic; also recorded: poor water solubility | half-life ([6]; human, plasma, inhaled or intranasal): 66.6 min | AUC(0-inf) [6, 8]: 13.3 ± 8.86 ng·h/mL | AUC(0-t) [6, 8]: 13.2 ± 8.86 ng·h/mL | Tmax [6, 8]: 27 min | Tlast of Bz-HC (time of the last quantifiable concentration), median ([6]; intranasal crushed Bz-HC.HCl/APAP 13.34/650 mg): 6.22 h | AUC value for intact Bz-HC as % of the AUC value for hydrocodone [7]: approximately 10%
